{"source": "the Deep4Chem optical property database", "experiment": "solvent given as SMILES"}
{"smiles": "c1ccc(N(c2ccccc2)c2ccc3c4cccc5c(N(c6ccccc6)c6ccccc6)ccc(c6cccc2c63)c54)cc1", "values": [{"measurement": "emission maximum", "setting": "in C1CCCCC1", "value": 531, "unit": "nm"}, {"measurement": "emission maximum", "setting": "in C1CCOC1", "value": 545, "unit": "nm"}, {"measurement": "emission maximum", "setting": "in CC#N", "value": 548, "unit": "nm"}, {"measurement": "emission maximum", "setting": "in Cc1ccccc1", "value": 541, "unit": "nm"}, {"measurement": "emission maximum", "setting": "in ClCCl", "value": 547, "unit": "nm"}]}
{"smiles": "CCCCCCCCCCCCc1sc(CCCCCC)c2c3cc(CCCCCC)sc3c3sc(CCCCCC)cc3c12", "values": [{"measurement": "emission maximum", "setting": "in ClC(Cl)Cl", "value": 423, "unit": "nm"}]}
{"smiles": "O=P1(c2ccccc2)C2=C(c3ccccc31)C(c1ccccc1)(c1ccccc1)c1cc(N(c3ccccc3)c3ccccc3)ccc12", "note": "(centres undefined)", "values": [{"measurement": "emission maximum", "setting": "in CC#N", "value": 594, "unit": "nm"}, {"measurement": "emission maximum", "setting": "in CO", "value": 608, "unit": "nm"}, {"measurement": "emission maximum", "setting": "in Cc1ccccc1", "value": 522, "unit": "nm"}]}
{"smiles": "COc1cc(OC)cc(C2=[O+][B-](F)(F)OC(c3ccc4ccccc4c3)=C2)c1", "values": [{"measurement": "emission maximum", "setting": "in CC#N", "value": 521.21, "unit": "nm"}, {"measurement": "emission maximum", "setting": "in CC(C)=O", "value": 521.21, "unit": "nm"}, {"measurement": "emission maximum", "setting": "in CCCCCC", "value": 418.89, "unit": "nm"}, {"measurement": "emission maximum", "setting": "in Cc1ccccc1", "value": 492.31, "unit": "nm"}, {"measurement": "emission maximum", "setting": "in ClCCl", "value": 560, "unit": "nm"}]}
{"smiles": "CN(C)c1ccc2cc(C3=[O+][B-](F)(F)OC(c4ccccc4)=C3)ccc2c1", "values": [{"measurement": "emission maximum", "setting": "in C1CCOC1", "value": 643, "unit": "nm"}, {"measurement": "emission maximum", "setting": "in CC#N", "value": 406, "unit": "nm"}, {"measurement": "emission maximum", "setting": "in CC(C)=O", "value": 682, "unit": "nm"}, {"measurement": "emission maximum", "setting": "in CS(C)=O", "value": 422, "unit": "nm"}, {"measurement": "emission maximum", "setting": "in Cc1ccccc1", "value": 573, "unit": "nm"}, {"measurement": "emission maximum", "setting": "in ClC(Cl)Cl", "value": 613, "unit": "nm"}, {"measurement": "emission maximum", "setting": "in ClCCl", "value": 650, "unit": "nm"}]}
{"smiles": "CC1(C)CC(/C=C/c2ccc(-n3ccnc3)cc2)=CC(=C(C#N)C#N)C1", "values": [{"measurement": "emission maximum", "setting": "in C1CCOC1", "value": 524, "unit": "nm"}, {"measurement": "emission maximum", "setting": "in CC#N", "value": 526, "unit": "nm"}, {"measurement": "emission maximum", "setting": "in CCO", "value": 520, "unit": "nm"}, {"measurement": "emission maximum", "setting": "in CCOC(C)=O", "value": 518, "unit": "nm"}, {"measurement": "emission maximum", "setting": "in ClCCl", "value": 504, "unit": "nm"}, {"measurement": "emission maximum", "setting": "in c1ccccc1", "value": 511, "unit": "nm"}]}
{"smiles": "CCOC(=O)c1cc(C(=O)OCC)c2cc(OC)ccc2n1", "values": [{"measurement": "emission maximum", "setting": "in CCO", "value": 441, "unit": "nm"}]}
{"smiles": "CC(C)(C)c1ccc(C2=CC(c3ccccc3)=[N+]3C2=Nc2c(-c4ccc(C(C)(C)C)cc4)cc(-c4ccccc4)n2[B-]3(F)F)cc1", "values": [{"measurement": "emission maximum", "setting": "in C1CCOC1", "value": 681, "unit": "nm"}, {"measurement": "emission maximum", "setting": "in Cc1ccccc1", "value": 683, "unit": "nm"}, {"measurement": "emission maximum", "setting": "in ClC(Cl)Cl", "value": 680, "unit": "nm"}]}
{"smiles": "F[B-]1(F)OC(c2ccccc2)=CC(c2ccccc2)=[O+]1", "values": [{"measurement": "emission maximum", "setting": "in CC#N", "value": 398, "unit": "nm"}, {"measurement": "emission maximum", "setting": "in ClC(Cl)(Cl)Cl", "value": 389, "unit": "nm"}]}
{"smiles": "COC(=O)CC1(C(=O)OC)Oc2c(c(C(C)=O)c3c(c2C(C)=O)OCO3)O1", "values": [{"measurement": "emission maximum", "setting": "in CC#N", "value": 532, "unit": "nm"}]}
{"smiles": "CCOC(=O)c1cc(C(=O)OCC)c2cc(N)ccc2n1", "values": [{"measurement": "emission maximum", "setting": "in CCO", "value": 537, "unit": "nm"}]}
{"smiles": "CCCCCCCCCCCCOc1cc2c3cc(OCCCCCCCCCCCC)c(OCCCCCCCCCCCC)cc3c3c(cc(OCCCCCCCCCCCC)c4nc5cc(C#Cc6ccc(CCCCCCCCCC)cc6)c(C#Cc6ccc(CCCCCCCCCC)cc6)cc5nc43)c2cc1OCCCCCCCCCCCC", "values": [{"measurement": "emission maximum", "setting": "in ClC(Cl)Cl", "value": 663, "unit": "nm"}]}
{"smiles": "COCCOCCOc1ccc(OCCOCCOC)c(C=O)c1", "values": [{"measurement": "emission maximum", "setting": "in CC(C)(C)O", "value": 444, "unit": "nm"}, {"measurement": "emission maximum", "setting": "in CC(C)CO", "value": 453, "unit": "nm"}, {"measurement": "emission maximum", "setting": "in CC(C)O", "value": 454, "unit": "nm"}, {"measurement": "emission maximum", "setting": "in CCCCO", "value": 456, "unit": "nm"}, {"measurement": "emission maximum", "setting": "in CCCO", "value": 460, "unit": "nm"}, {"measurement": "emission maximum", "setting": "in CCO", "value": 461, "unit": "nm"}, {"measurement": "emission maximum", "setting": "in CN(C)C=O", "value": 424, "unit": "nm"}, {"measurement": "emission maximum", "setting": "in CNC=O", "value": 458, "unit": "nm"}, {"measurement": "emission maximum", "setting": "in CO", "value": 468, "unit": "nm"}, {"measurement": "emission maximum", "setting": "in NC=O", "value": 463, "unit": "nm"}, {"measurement": "emission maximum", "setting": "in O", "value": 485, "unit": "nm"}]}
{"smiles": "CN(C)c1ccc(/C=C/c2cnc(C#Cc3ccc(C#N)cc3)o2)cc1", "values": [{"measurement": "emission maximum", "setting": "in ClCCl", "value": 515, "unit": "nm"}]}
{"smiles": "CC(C)(C)c1ccc2c(c1)c1cc(C(C)(C)C)ccc1n2-c1nc2ccccc2nc1-n1c2ccc(C(C)(C)C)cc2c2cc(C(C)(C)C)ccc21", "values": [{"measurement": "emission maximum", "setting": "in C1CCOC1", "value": 544.34, "unit": "nm"}, {"measurement": "emission maximum", "setting": "in CCCCCC", "value": 488.69, "unit": "nm"}, {"measurement": "emission maximum", "setting": "in Cc1ccccc1", "value": 527, "unit": "nm"}]}
{"smiles": "Clc1cnc2nn3ccccc3c2n1", "values": [{"measurement": "emission maximum", "setting": "in C1CCOC1", "value": 448, "unit": "nm"}]}
{"smiles": "CC[N+](CC)=c1ccc2nc3c(cc(NCCC(=O)NC(C)C(=O)OC)c4ccccc43)oc-2c1", "note": "(centres undefined)", "values": [{"measurement": "emission maximum", "setting": "in CCO", "value": 672, "unit": "nm"}, {"measurement": "emission maximum", "setting": "in O", "value": 684, "unit": "nm"}]}
{"smiles": "CC(C)(C)c1ccc(-c2cc(-c3ccc(-c4cc(-c5ccc(C(C)(C)C)cc5)c(C#N)s4)s3)sc2C#N)cc1", "values": [{"measurement": "emission maximum", "setting": "in ClCCl", "value": 443, "unit": "nm"}]}
{"smiles": "CCCCCCN1C(=O)c2cccc3cc(/N=C\\c4nc5ccccc5s4)cc(c23)C1=O", "values": [{"measurement": "emission maximum", "setting": "in ClC(Cl)Cl", "value": 495, "unit": "nm"}]}
{"smiles": "C=CC1CN2CCC1CC2[C@H](O)c1ccnc2ccc(OC)cc12", "note": "(some centres undefined)", "values": [{"measurement": "emission maximum", "setting": "in O", "value": 451, "unit": "nm"}]}
{"smiles": "C(=C\\c1ncc(-c2ccc(OCc3ccccc3)c(OCc3ccccc3)c2)o1)/c1cccc(N2CCN(c3ccccc3)CC2)c1", "values": [{"measurement": "emission maximum", "setting": "in ClCCl", "value": 500, "unit": "nm"}]}
{"smiles": "F[B-]1(F)OC(c2ccc(C(F)(F)F)cc2)=Cc2c3ccccc3c3ccccc3[n+]21", "values": [{"measurement": "emission maximum", "setting": "in ClC(Cl)Cl", "value": 446, "unit": "nm"}]}
